Results as given in US6569846B1, “Palladium-substituted bacteriochlorophyll derivatives and use thereof” (Yeda Research and Development Co. Ltd., priority 1998, dated 2003).
“And” between values parts separate entries of the source, which are not always exact repeats. Equal values may be shown once.

Experiments:
[1] = test system: M2R mouse melanoma tumors; assay: In vivo PDT of M2R melanoma tumors; parameters: species or system CD1 nude mice; conditions: 2.5 mg/Kg i.v., illuminated 30 min at 300 mW cm^−2; within 24 h
Experimental: (iv) Tumor implantation: Mice were implanted with 10^6 M2R cells on the back and tumors arose to the treatment size (7-8 mm) within 2-3 weeks.
(v) Light source: Osram 150 W halogen photo-optic lamp 64643 (D. K. Keller et al 1999, Int. J. Hyperthermia 15, 467-474) equipped with λ=650-900 mn spectral window, 300 mW/cm^−2. Illumination was for 30 min.
(vi) PDT protocol: The anesthetized mouse was i.v injected with the pigment and the tumor immediately illuminated. At the end of treatment the mouse was placed back in the cage. Photographs of the tumor were taken before and at the times indicated.
Preparation of sensitizer: Two mg Pd-BPheid were dissolved in 0.25 ml cremophor EL followed by 20 min sonication. 0.075 ml 1,2-propylene glycol were added and sonication was continued for another 15 min. Then 0.9 ml of […] were added followed by 5 min sonication. The sample was centrifuged for 12 min at 13,000 rpm (Eppendorf). The final calculated concentration of Pd-BPheid based on spectrum in chloroform was 0.5 mg/ml. […]
Preparation of sensitizer: Two mg Pd-BPheid were dissolved in 0.1 ml methanol, 0.1 ml 0.1M KH2PO4, pH=8.0 and 0.9 ml PBS and sonicated for 10 min. […] The sample was centrifuged for 8 min on 13,000 rpm the final calculated concentration of Pd-BPheid based on spectrum in chloroform was 0.5 mg/ml. […]

C3H/BA mammary carcinoma = assay: In vivo PDT of BA mammary carcinoma; parameters: key to Summary (cures), symbol: −: no response
Experimental: Photodynamic therapy parameters: Mice with tumors measuring 5-7 mm in diameter were entered into PDT experiments. Three Pd-BPheid drug doses (1, 5 and 10 mg/kg) and two light doses (100 and 300 Joules/sq.cm) were evaluated. A formulation of Pd-BPheid dissolved in Cremophor was administered by i.v. tail injection. PDT light exposure was started either 15 minutes, 1 hour or 4 hours following injection. […] A titanium sapphire laser tuned to 757 nm was used as the light source for PDT. Laser generated light was coupled into quartz fibers for delivery of light to tumors. A light power density of 75 mW/sq.cm was used. Tumor size was measured 3 days per week following PDT treatments and the percentage of tumor cures (defined as no tumor recurrence for 40 days post treatment) was determined.
In vivo PDT Response: Tables 4 and 5 hereinafter provide summaries of the PDT treatment results for C3H mice transplanted with either the BA mammary carcinoma or the RIF-1 fibrosarcoma. Each table indicates the following parameters: 1) intravenous drug dose expressed in mg/kg; 2) laser treatment parameters, including the total light dose (J/cm^2), the wavelength (757 nm), the light dose rate (mW/cm^2), and the time interval ([…], 4) toxicity (four mice died shortly after treatment), 5) tumor regrowth (consisting of the number of days between PDT treatment and tumor recurrence) and 6) the number of mice (and percentage) with Pd-BPheid PDT induced tumor cures.

[2] = 1 mg/Kg i.v., 300 J/cm^2, 757 nm, 75 mW/cm^2, 15 min. interval
[3] = 5 mg/Kg i.v., 300 J/cm^2, 757 nm, 75 mW/cm^2, 1 HR interval
[4] = 5 mg/Kg i.v., 300 J/cm^2, 757 nm, 75 mW/cm^2, 15 min. interval
[5] = 10 mg/Kg i.v., 100 J/cm^2, 757 nm, 75 mW/cm^2, 1 HR interval
[6] = 10 mg/Kg i.v., 100 J/cm^2, 757 nm, 75 mW/cm^2, 15 min. interval
[7] = 10 mg/Kg i.v., 300 J/cm^2, 757 nm, 75 mW/cm^2, 1 HR interval
[8] = 10 mg/Kg i.v., 300 J/cm^2, 757 nm, 75 mW/cm^2, 4 HR interval

## CC[C@H]1C2=NC(=Cc3c(C(C)=O)c(C)c4[n]3[Pd][n]3c(c(C)c5c3=C(C3=NC(=C4)[C@@H](C)[C@@H]3CCC(=O)O)[C@@H](C(=O)OC)C5=O)=C2)[C@@H]1C [Pd-BPheid, Pd-bacteriopheophorbide a]
[1]
  tumor response to PDT: severe inflammatory response with necrosis of the tumor
C3H/BA mammary carcinoma; [2]
  Number of Animals with Primary Tumor Regrowth (Days to Recurrence): 1(1 day)
  Summary (cures), symbol: −
  Toxicity (Treatment associated death): 0
C3H/BA mammary carcinoma; [3]
  Number of Animals with Primary Tumor Regrowth (Days to Recurrence): 1(11 days)
  Summary (cures) %: 66.66%
  Summary (cures), number of animals (days): 2(41 days)
  Toxicity (Treatment associated death): 0
C3H/BA mammary carcinoma; [4]
  Summary (cures) %: 100%
  Summary (cures), number of animals (days): 2(40 days)
  Toxicity (Treatment associated death): 0
C3H/BA mammary carcinoma; [5]
  Number of Animals with Primary Tumor Regrowth (Days to Recurrence): 1(5 days)
  Summary (cures) %: 66.66%
  Summary (cures), number of animals (days): 2(40 days)
  Toxicity (Treatment associated death): 0
C3H/BA mammary carcinoma; [6]
  Summary (cures) %: 100%
  Summary (cures), number of animals (days): 2(42 days)
  Toxicity (Treatment associated death): 0
C3H/BA mammary carcinoma; [7]
  Summary (cures) %: 100%
  Summary (cures), number of animals (days): 2(41 days) and 1(41 days)
  Toxicity (Treatment associated death): 0
C3H/BA mammary carcinoma; [8]
  Number of Animals with Primary Tumor Regrowth (Days to Recurrence): 2(1 day)
  Summary (cures), symbol: −
  Toxicity (Treatment associated death): 0
C3H/BA mammary carcinoma; 4-hour interval between drug administration and light treatment
  effectiveness of PDT: not effective
C3H/BA mammary carcinoma; comparable PDT treatments
  responsiveness of BA mammary carcinoma compared with RIF-1 fibrosarcoma: more responsive
C3H/BA mammary carcinoma; light treatments initiated within 1 hour of drug administration
  effectiveness of PDT: effective
